Measurements: patent US9827212B2, “Compositions and methods for treating asthma and other lung diseases” (THE TRUSTEES OF THE UNIVERSITY OF PENNSYLVANIA, priority 2010, dated 2017)
Read-outs that look alike come from different tables or passages of the source.

Columns and labels:
RANTES = RANTES secretion from human precision cut lung slices (PCLS); format: cell-based; details: for inhibition of RANTES secretion from PCLS: TSA 10 μM or budesonide 50 nM 2 h prior
Procedure: (§1) FIG. 11. […] Secretion of IL-6 and RANTES was analyzed as described under materials and methods. Values shown are mean+/− s.d. from three samples.
(§2) The levels of cytokine secreted into the supernatants of PCLS and bronchoalveolar lavage (BAL) fluid samples were determined by ELISA according to standard protocols as previously described (Banerjee et al. 2008). The cytokine amounts were calculated from the standard curves in each plate. The limits of detection were 5 pg/ml for IL-4 and IL-6 and RANTES standards. Recombinant mouse IL-4 and IL-6 and human RANTES were used as controls.
(§3) Human lung slice preparation. Human PCLS were prepared as previously described (Cooper et al. 2008). Briefly, healthy whole human lungs were received from the NDRI, and the smallest lobe was dissected out and its main bronchus identified. The lobe was inflated using a 2% (wt/vol) low melting point agarose solution. Once the agarose had set, the lobe was sectioned, and cores of 8-mm diameter were made. The cores that contained a small airway by visual inspection were sliced at a thickness of 250 μm (Krumdieck Tissue Slicer; model no. MD4000; Alabama Research and Development) and collected in wells containing supplemented Ham's F-12 medium. Suitable airways (≦1-mm diameter) on slices were selected on the basis of the following criteria: presence of a full smooth muscle wall (i.e., cut perpendicular to direction of airway); presence of beating cilia to eliminate blood vessels; and unshared muscle walls at airway branch points to eliminate possible counteracting contractile forces. […] Adjacent slices containing contiguous segments of the same airway were paired to act as control to the variable tested and incubated at 37° C. on a rotating platform in a humidified air-CO2 (95-5%) incubator. Sections were placed in fresh media every 2-3 h during the remainder of day 1 and all of day 2 to rid the slice and media of agarose and endogenous substances released that could variably confound the production of inflammatory mediators and/or alter airway tone.
(§4) Three airways from each donor were used per condition; n values indicate the number of donors. Data are expressed as means± SEM. Statistical difference was shown by using a nonpaired t test.

HDAC = details: TSA 0.6 mg/kg i.p.
Procedure: HDAC activity was measured as described previously (Trivedi et al. 2007). […] 50 μg of total extract was incubated with HDAC assay substrate and incubated at 30° C. for 60 min. After the addition of diluted activator reagent, samples were incubated at room temperature for 15 min, and readings were taken by fluorescent microplate reader at an excitation of 360 nm and emission of 450 nm. A standard curve was performed according to the manufacturer's protocol.

IL-4 = IL-4 level in BAL fluid (ELISA); format: in vivo, mice
Procedure: (§5) Mice were sensitized by intraperitoneal (I.P.) injections of 20 μg allergen, a protein extract of the ubiquitous, airborn fungus, Aspergillus fumigatus (AF), (Bayer Pharmaceuticals), in 100 μl PBS solution containing 2 mg of alum (Imject Alum, Pierce) on days 0 and 14 and challenged on days 25, 26, and 27 with 30 μl of Af extract in PBS (25 μg) intranasally (i.n.) (FIG. 1).
as §2

[1] = tested on: naïve mice challenged with methacholine; assay: Invasive lung function (FlexiVent), methacholine challenge, naïve mice; format: in vivo; details: dexamethasone 2.5 mg/kg i.p.
Procedure: (§6) Lung resistance, compliance, elastance, tissue damping, tissue elastance, and airway resistance were recorded using the FlexiVent system (SCIREQ Scientific Respiratory Equipment Inc). The FlexiVent System Overview is shown in FIG. 1B: FlexiVent is a modular, multi-functional device that performs both mechanical ventilation and detailed measurements of respiratory mechanics in subjects.
(§7) The mice were anesthetized by an I.P. injection of a Ketamine (100 mg/kg) and Xylazine (20 mg/kg) mixture. After anesthesia, a half centimeter incision was made from the rostal to caudal direction; the flap of skin was retracted and the connective tissue was dissected away, and the trachea was exposed. The trachea was then cannulated between the second and third cartilage rings with a blunt-end stub adapter. The cannula was secured with suture. The mice were next connected to the Flexivent system. All spontaneous respirations were stopped with an intramuscular injection of Pancuronium Bromide (3 mg/kg) and the mice were then mechanically ventilated at respiratory rate of 140 beats/per minute with 0.25 ml of tidal volume. The Flexivent system then briefly interrupted the mechanical ventilation to apply a test signal, or perturbation to measure the respiratory mechanics. The respiratory mechanics were then calculated from the data collected while the perturbation was applied. […] At the end of testing the mice were disconnected and processed for multiple organ, blood, and fluid removal. The mice were first exsanguinated through the optical artery. Then bronchoalveolar lavage was performed through the tracheal canula. Finally, the peritoneal and the thoracic cavity were opened, and the lungs were removed for protein and histological processing.

[2] = tested on: mice sensitized and challenged with Aspergillus fumigatus (AF); assay: Invasive lung function (FlexiVent), methacholine challenge, Aspergillus fumigatus sensitized and challenged mice; format: in vivo; details: TSA 0.6 mg/kg i.p., dexamethasone 2.5 mg/kg i.p.
Procedure: as §5, §6, §7

IL-6 [3] = assay: IL-6 level in BAL fluid (ELISA); format: in vivo, mice
Procedure: as §5, §2

[4] = tested on: inflammatory cells in bronchoalveolar lavage (BAL) fluid; assay: BAL cell count and differential; format: in vivo, mice
Procedure: as §5
After functional measurements were completed, lungs were lavaged with 1-ml aliquots of sterile saline through the tracheal cannula. After centrifuging (500 g for 10 min at 4° C.) the cell pellet was resuspended in RPMI. Differential cell counts were made from cytospin preparations as described (Elwood et al. 1991). Cells were identified as macrophages, eosinophils, neutrophils, and lymphocytes by standard morphology and at least 300 cells were counted under ×400 magnification. The percentage and absolute numbers of each cell type were then calculated. The supernatants were harvested and stored at −20° C. for further analysis.

IL-6 [5] = assay: IL-6 secretion from human precision cut lung slices (PCLS); format: cell-based; details: for inhibition of IL-6 secretion from PCLS / inhibition at 0.05 µM: TSA 10 μM or budesonide 50 nM 2 h prior; for inhibition at 0.05 µM: Homo sapiens
Procedure: as §1, §2, §3, §4

[6] = mice sensitized and challenged with Aspergillus
[7] = unsensitized and unchallenged (naïve) mice
[8] = TNFα (10 ng/mL) and IFNγ (10,000 IU/mL) stimulated

CC(/C=C/C(=O)NO)=C\[C@@H](C)C(=O)c1ccc(N(C)C)cc1 [TSA, Trichostatin A]
inhibition of RANTES secretion from PCLS (RANTES; TNFα (10 ng/mL) and IFNγ (10,000 IU/mL) induced): 55.1%+/−7.5% | inhibition of RANTES secretion from PCLS (RANTES; TNFα (10 ng/mL) induced): 50%+/−23% | basal RANTES secretion from PCLS (RANTES; unstimulated, TSA 10 μM): did not induce basal RANTES secretion | HDAC activity in lung tissue (HDAC; [6]): effectively inhibited HDAC activity | HDAC activity in lung tissue (HDAC; naïve mice): effectively inhibited HDAC activity | IL-4 in BAL (IL-4; [6]): little effect on cytokine secretion | IL-4 in BAL (IL-4; [7]): did not increase | dynamic compliance, maximum inhibition by methacholine ([1]; TSA 0.6 mg/kg i.p.): 0.032 mL/cmH2O | half maximal inhibitory concentration of methacholine on dynamic compliance ([1]; TSA 0.6 mg/kg i.p.): 2.5 mg/mL | dynamic compliance, maximum inhibition by methacholine [2]: 0.008 mL/cmH2O | half maximal effective concentration of methacholine (airway resistance) [2]: 20 mg/mL | half maximal inhibitory concentration of methacholine on dynamic compliance [2]: 5 mg/mL | IL-6 in BAL (IL-6 [3]; [6]): little effect on cytokine secretion | IL-6 in BAL (IL-6 [3]; [7]): did not increase | BAL eosinophil counts ([4]; Aspergillus challenged mice, TSA 0.6 mg/kg i.p., dexamethasone 2.5 mg/kg i.p.): no effect | total cell counts in BAL ([4]; Aspergillus sensitized and challenged mice, TSA 0.6 mg/kg i.p., dexamethasone 2.5 mg/kg i.p.): no effect | percentages of inflammatory cells in the BAL ([4]; after allergen sensitization and challenge): little effect | total cell counts in BAL ([4]; naïve mice, TSA 0.6 mg/kg i.p., dexamethasone 2.5 mg/kg i.p.): no significant difference in cell counts | BAL macrophages, neutrophils, or lymphocytes ([4]; untreated mice or Aspergillus sensitized and challenged mice): no significant differences | inhibition of IL-6 secretion from PCLS (IL-6 [5]; [8]): 18.8%+/−6.8% | inhibition of IL-6 secretion from PCLS (IL-6 [5]; TNFα (10 ng/mL) stimulated): 30.2%+/−12.5% | basal IL-6 secretion from PCLS (IL-6 [5]; unstimulated, TSA 10 μM): little effect on basal IL-6 secretion

CCCC1O[C@@H]2C[C@H]3[C@@H]4CCC5=CC(=O)C=C[C@]5(C)[C@H]4[C@@H](O)C[C@]3(C)[C@]2(C(=O)CO)O1 (some centres unmarked) [budesonide]
inhibition at 0.05 µM (RANTES; Homo sapiens): 69% | inhibition at 0.05 µM (IL-6 [5]; [8]): 52.7% | inhibition at 0.05 µM (IL-6 [5]; TNFα (10 ng/mL) stimulated): 44.4%

C[C@@H]1C[C@H]2[C@@H]3CCC4=CC(=O)C=C[C@]4(C)[C@@]3(F)[C@@H](O)C[C@]2(C)[C@@]1(O)C(=O)CO [dexamethasone]
Emax of airway (lung) resistance in response to methacholine ([1]; TSA 0.6 mg/kg i.p. in DMSO): 2.3 cmH2O/mL | dynamic compliance, maximum inhibition by methacholine ([1]; TSA 0.6 mg/kg i.p.): 0.010 mL/cmH2O | Emax of airway resistance in response to methacholine [2]: 6 cmH2O/mL | dynamic compliance, maximum inhibition by methacholine [2]: 0.005 mL/cmH2O
